This is an account of results in PubChem BioAssay (NCI).

Some test systems named below: 786-0 renal; DU-145 prostate; HOP-62 NSCLC; MDA-MB-435; MOLT-4 leukemia; NCI-H522 lung; OVCAR-4 ovarian; RPMI-8226 leukemia; SN12C renal; UO-31 renal.
Assay in all cases: inhibition of tumour cell growth, NCI panel, 48 h

SMILES strings stand for the structures.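 Method: 48-hour compound exposure of cells in 96-well plates, five concentrations, linear interpolation of endpoints. GI50: concentration for 50% inhibition of growth. TGI: total growth inhibition.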

`OCCCCC#Cc1ccccc1C#Cc1cccs1`: the GI50 is 14.3 µM in the experiment on 786-0 renal; 13 µM with DU-145 prostate; 13 µM in the experiment with HOP-62 NSCLC; 16.6 µM with MDA-MB-435; 18.8 µM with MOLT-4 leukemia; 18.5 µM in the experiment on NCI-H522 lung. For the same molecule, the GI50 in the experiment on OVCAR-4 ovarian was 20.2 µM; in the experiment with RPMI-8226 leukemia, 22 µM; with SN12C renal, 16.3 µM; in the experiment with UO-31 renal, 16.9 µM. The TGI with 786-0 renal came to 27.9 µM; in the experiment with DU-145 prostate it was 25.7 µM; in the experiment on HOP-62 NSCLC, 26.5 µM; with MDA-MB-435, 30.8 µM; with MOLT-4 leukemia, 40.3 µM; in the experiment with NCI-H522 lung it was 35.6 µM. Moreover, the TGI in the experiment on OVCAR-4 ovarian amounted to 50.1 µM; in the experiment with RPMI-8226 leukemia it was 71 µM; in the experiment with SN12C renal, 31.7 µM; with UO-31 renal, 30.6 µM.
Turning to `COc1ccc2nc(C3=CN(C4OC(CO)C(O)C(O)C4O)C4C=CC=CC34)sc2c1` (stereo not given), the GI50 is 15.6 µM in the experiment with 786-0 renal; 38.8 µM in the experiment with DU-145 prostate; 22.6 µM in the experiment with HOP-62 NSCLC; 37.1 µM in the experiment with MDA-MB-435; 21.9 µM with MOLT-4 leukemia; 24 µM with NCI-H522 lung. In addition, the GI50 is greater than 100 µM with OVCAR-4 ovarian, 40.3 µM in the experiment on RPMI-8226 leukemia, 29.7 µM in the experiment with SN12C renal and 41.1 µM with UO-31 renal. The TGI in the experiment on 786-0 renal was 58.4 µM; in the experiment on DU-145 prostate it was greater than 100 µM; in the experiment on HOP-62 NSCLC it was 56.9 µM; in the experiment with MDA-MB-435, greater than 100 µM; in the experiment on MOLT-4 leukemia, 90.8 µM; with NCI-H522 lung it was 76.5 µM. The TGI was greater than 100 µM with OVCAR-4 ovarian, greater than 100 µM in the experiment with RPMI-8226 leukemia, 94.1 µM with SN12C renal and greater than 100 µM with UO-31 renal.
Turning to `Cc1sc2c(c1C)C(c1ccc(Cl)cc1)=N[C@@H](CC(=O)Nc1ccc(O)cc1)c1nnc(C)n1-2`, the GI50 in the experiment with 786-0 renal is 0.837 µM; in the experiment with DU-145 prostate it was 14.7 µM; in the experiment with HOP-62 NSCLC it was 0.18 µM; in the experiment with MDA-MB-435, 0.399 µM; in the experiment with MOLT-4 leukemia, 3.85 µM; with NCI-H522 lung, 0.262 µM. The GI50 in the experiment on OVCAR-4 ovarian was 0.585 µM; in the experiment with RPMI-8226 leukemia it was 0.168 µM; with SN12C renal, 9.41 µM; in the experiment with UO-31 renal, 0.151 µM. Further, the TGI is 24.8 µM in the experiment on 786-0 renal; 42.8 µM in the experiment with DU-145 prostate; 17.2 µM in the experiment on HOP-62 NSCLC; 19 µM with MDA-MB-435; 54.7 µM in the experiment with MOLT-4 leukemia; 16.1 µM in the experiment with NCI-H522 lung. The TGI in the experiment with OVCAR-4 ovarian was greater than 67 µM; in the experiment on RPMI-8226 leukemia it was 11.8 µM; in the experiment with SN12C renal it was 30.7 µM; in the experiment on UO-31 renal it was 15.4 µM.
`O=C1C(Cl)=C(Nc2ccc3c(c2NC2=C(Cl)C(=O)c4ccccc4C2=O)C(=O)c2ccccc2C3=O)C(=O)c2ccccc21`: the GI50 in the experiment on 786-0 renal is 2.91 µM; in the experiment on DU-145 prostate it was 1.57 µM; with HOP-62 NSCLC, 2.25 µM; in the experiment with MDA-MB-435 it was 0.346 µM; with MOLT-4 leukemia it was 3.25 µM; in the experiment on NCI-H522 lung, 2.48 µM. In addition, the GI50 is 1.42 µM in the experiment on OVCAR-4 ovarian, 1.66 µM in the experiment with RPMI-8226 leukemia, 1.73 µM in the experiment on SN12C renal and 1.75 µM in the experiment on UO-31 renal. For the same molecule, the TGI in the experiment with 786-0 renal was found to be 9.6 µM; with DU-145 prostate, 2.97 µM; with HOP-62 NSCLC, 5.68 µM; in the experiment on MDA-MB-435 it was 1.04 µM; in the experiment on MOLT-4 leukemia it was 17.5 µM; in the experiment on NCI-H522 lung, 8.7 µM. The TGI amounted to 2.99 µM in the experiment on OVCAR-4 ovarian, 9.37 µM with RPMI-8226 leukemia, 4.46 µM with SN12C renal and 9.01 µM in the experiment on UO-31 renal.
Turning to `CCN1CCN(c2cc(C)nc(NCc3cc(Nc4ccnc5cc(Cl)ccc45)ccc3F)n2)CC1`, the GI50 with 786-0 renal was 2.07 µM; in the experiment on DU-145 prostate it was 2.74 µM; in the experiment with HOP-62 NSCLC it was 3.59 µM; in the experiment with MDA-MB-435 it was 2.22 µM; in the experiment with MOLT-4 leukemia, 2.34 µM; in the experiment with NCI-H522 lung, 7.21 µM. For the same molecule, the GI50 with OVCAR-4 ovarian was 2.08 µM; in the experiment on RPMI-8226 leukemia, 2.13 µM; in the experiment with SN12C renal, 4.48 µM; in the experiment with UO-31 renal, 1.61 µM. In addition, the TGI was 5.88 µM with 786-0 renal; 42.3 µM in the experiment with DU-145 prostate; 24.1 µM in the experiment on HOP-62 NSCLC; 5.99 µM in the experiment with MDA-MB-435; greater than 100 µM with MOLT-4 leukemia; 36 µM in the experiment with NCI-H522 lung. Besides, the TGI in the experiment on OVCAR-4 ovarian was greater than 100 µM; in the experiment on RPMI-8226 leukemia, 8.72 µM; in the experiment with SN12C renal, 27 µM; in the experiment on UO-31 renal it was 3.89 µM.
With `O=C(Nn1c2c(sc1=NC1CC1)C(=O)c1ccccc1C2=O)c1cc2ccc1CCc1ccc(cc1)CC2`, the GI50 with 786-0 renal is 2.75 µM; in the experiment with DU-145 prostate, 1.85 µM; in the experiment on HOP-62 NSCLC it was 4.28 µM; in the experiment with MDA-MB-435 it was 1.76 µM; in the experiment on MOLT-4 leukemia, 2.22 µM; in the experiment with NCI-H522 lung it was 1.6 µM. The GI50 with OVCAR-4 ovarian was 1.61 µM; with RPMI-8226 leukemia it was 1.86 µM; with SN12C renal, 1.34 µM; in the experiment on UO-31 renal, 0.85 µM. Also, the TGI worked out at 7.93 µM in the experiment with 786-0 renal; 3.43 µM with DU-145 prostate; 17.2 µM with HOP-62 NSCLC; 3.23 µM in the experiment on MDA-MB-435; 8.89 µM in the experiment with MOLT-4 leukemia; 4.69 µM with NCI-H522 lung. Besides, the TGI in the experiment on OVCAR-4 ovarian worked out at 4.58 µM; in the experiment on RPMI-8226 leukemia, 6.47 µM; in the experiment on SN12C renal, 2.61 µM; in the experiment on UO-31 renal, 2.77 µM.
